{"source": "patent US6428529B1", "about": "“Epidural administration of therapeutic compounds with sustained rate of release” (SkyePharma Inc., priority 1995, dated 2002)", "key": {"rats [1]": {"tested_on": "rats", "assay": "Antinociception, hot plate test after epidural (or subcutaneous) dose", "assay_type": "in vivo, Sprague-Dawley rats", "conditions": "250 μg epidural", "protocol": "Baseline values of nociception following placement of the epidural catheter were determined by subjecting the animals to standard hot plate (52.5±0.5° C.) testing as described in M. S. Wallace et al., (Anesth. Analg. 79:778-786, 1994). Response latency to nociception (in seconds) was measured from the time when the animals were placed on the hot plate to the time when they either licked their hind paw or jumped. The baseline (pretreatment) response latency value was defined as 0% of the maximum possible analgesia (MPA) in each experimental animal. […] Following epidural administration of the test solutions via the catheter emplanted as described above, the epidural catheter was flushed with 10 μl of 0.9% sodium chloride.\nAntinociception was determined in 5 or 6 animals for each dose and each drug. To prevent tissue damage to the footpads, a cutoff time of 60 seconds was used. Accordingly, 100% MPA was defined as antinociception lasting ≧60 seconds.\nEfficacy and respiratory depression curves were plotted as a function of time for each dose administered. Hot plate responses were calculated as a percentage of the maximum possible analgesia (%MPA) as described in Wallace et al. (supra): [formula]\nAll areas under the curves were calculated by the trapezoidal rule to the last data point using the RSTRIP computer program [Micromath, Salt Lake City, Utah]. […]"}, "rats [2]": {"tested_on": "rats", "assay": "Respiratory depression quantified by pulse oximetry (SpO2) after single epidural bolus", "conditions": "for respiratory depression (decrease in SpO2): single epidural dose 10 to 2000 μg, sulfate", "method": "Respiratory depression was quantified by pulse oximetry. The animals were removed from their cages, placed in polystyrene rat restraints (Plas Labs, Lansing, Mich.) and allowed to acclimate for 5 minutes. […] Pulse oximetry was performed on 5 to 6 animals at each data point, except for the 50 μg dose where 3 animals were used. The pulse oximetry values of percent hemoglobin oxygen saturation (SpO2) were monitored continuously in real time. The maximum value obtaining during the 3-minute recording period was defined as oxygen saturation."}}, "data": [{"smiles": "CN1CC[C@]23c4c5ccc(O)c4O[C@H]2[C@@H](O)C=C[C@H]3[C@H]1C5.O=S(=O)(O)O", "note": "[MS, morphine sulfate]", "values": [{"measurement": "peak effect (% of maximum possible analgesia)", "setting": "rats [1]", "value": "~100", "unit": "% MPA"}, {"measurement": "time to decrease to 50% MPA", "setting": "rats [1]", "value": 0.17, "unit": "days"}, {"measurement": "delayed respiratory depression", "setting": "rats [2]; single epidural dose", "value": "no delayed respiratory depression"}, {"measurement": "respiratory depression (decrease in SpO2)", "setting": "rats [2]; listed as free morphine", "value": "did cause respiratory suppression at high dosages"}, {"measurement": "respiratory depression (decrease in SpO2)", "setting": "rats [2]", "value": "dose-dependent increase in respiratory depression"}]}]}
